Measurements published in paper PMC7608132 (Acta Pharmacologica Sinica, 2020).
Read-outs that look alike come from different tables or passages of the source. One block for each compound: values may come before it.

Experiments:
[1] = rifampin; cited from earlier work
[2] = HLMs, 3 µM alflutinib, selective inhibitor at the concentration of b13

SMILES: O=c1c(O)c(-c2ccc(O)c(O)c2)oc2cc(O)cc(O)c12 [Quercetin, quercetin]
Suppression of the production of AST5902 (CYP enzymes in HLMs; [2]): 68%

SMILES: CO[C@H]1/C=C/O[C@@]2(C)Oc3c(C)c(O)c4c(O)c(c(/C=N/N5CCN(C)CC5)c(O)c4c3C2=O)NC(=O)/C(C)=C\C=C\[C@H](C)[C@H](O)[C@@H](C)[C@@H](O)[C@@H](C)[C@H](OC(C)=O)[C@@H]1C [Rifampin]
In vivo concentrations [1]: 10 to 18 µM

SMILES: Cc1ncsc1CCCl [chlormethiazole]
Effect on the formation of alflutinib metabolites (CYP enzymes in HLMs; HLMs, α-naphthoflavone 2 µM, chlormethiazole 24 µM): no significant effects

The next lines start with the values.

Suppression of the production of AST5902 (CYP enzymes in HLMs; [2]): 45%
SMILES: Nc1ccc(S(=O)(=O)Nc2ccnn2-c2ccccc2)cc1 [Sulfaphenazole, sulfaphenazole]

Effect on the formation of alflutinib metabolites (CYP enzymes in HLMs): no significant effects
SMILES: O=c1cc(-c2ccccc2)oc2c1ccc1ccccc12 [α-Naphthoflavone, α-naphthoflavone]

Suppression of the production of AST5902 (CYP enzymes in HLMs): 98%
SMILES: Nn1nnc2ccccc21 [ABT, 1-aminobenzotriazole]
